Test results: patent US10479795B2 (Incyte Corporation, priority 2016, dated 2019)
Counter-ions that a name gives are not always drawn.

Tests used:
[1] = biological target: PI3Kγ (p110γ) Recombinant Human Protein (Homo sapiens (Human), UniProt P48736); experiment: PI3K-γ Scintillation Proximity Assay; assay type: biochemical; conditions: read-out: PI3Kγ IC50
Procedure: [γ-^33P]ATP (10 mCi/mL) and Wheat Germ Agglutinin (WGA) YSi SPA Scintillation Beads was purchased from Perkin-Elmer (Waltham, Mass.). […] PI3Kγ (p110γ) Recombinant Human Protein was purchased from Life technology (Grand Island, N.Y.). ATP, MgCl2, DTT, EDTA, MOPS and CHAPS were purchased from Sigma-Aldrich (St. Louis, Mo.).
The kinase reaction was conducted in polystyrene 384-well Greiner Bio-one white plate from Thermo Fisher Scientific in a final volume of 25 μL. Inhibitors were first diluted serially in DMSO and added to the plate wells before the addition of other reaction components. The final concentration of DMSO in the assay was 2%. The PI3Kγ assay was carried out at room temperature in 20 mM MOPS, pH 6.7, 10 mM MgCl2, 5 mM DTT and CHAPS 0.03%. Reactions were initiated by the addition of ATP, the final reaction mixture consisted of 20 μM PIP2, 2 μM ATP, 0.5 μCi [γ-^33P] […] The final concentration of SPA beads is 1.0 mg/mL. After the plate sealing, plates were shaken overnight at room temperature and centrifuged at 1500 rpm for 10 min, the radioactivity of the product was determined by scintillation counting on Topcount (Perkin-Elmer). IC50 determination was performed by fitting the curve of percent of the solvent control activity versus the log of the inhibitor concentration using the GraphPad Prism 6.0 software.

[2] = biological target: PI3Kδ (p110δ/p85α) Recombinant Human Protein (Homo sapiens (Human), UniProt O00329); experiment: PI3Kδ Scintillation Proximity Assay; assay type: biochemical
Source text: Example C. PI3Kδ Scintillation Proximity Assay
[γ-^33P]ATP (10 mCi/mL) and Wheat Germ Agglutinin (WGA) YSi SPA Scintillation Beads was purchased from Perkin-Elmer (Waltham, Mass.). Lipid kinase substrate, D-myo-Phosphatidylinositol 4,5-bisphosphate (PtdIns(4,5)P2)D (+)-sn-1,2-di-O-octanoylglyceryl, 3-O-phospho linked (PIP2), CAS 204858-53-7, was purchased from Echelon Biosciences (Salt Lake City, Utah). PI3Kδ (p110δ/p85α) Recombinant Human Protein was purchased from Eurofins (St Charles, Mo.). ATP, MgCl2, DTT, EDTA, MOPS and CHAPS were purchased from Sigma-Aldrich (St. Louis, Mo.).
The kinase reaction was conducted in polystyrene 384-well Greiner Bio-one white plate from Thermo Fisher Scientific in a final volume of 25 μL. Inhibitors were first diluted serially in DMSO and added to the plate wells before the addition of other reaction components. The final concentration of DMSO in the assay was 2%. The PI3Kδ assay was carried out at room temperature in 20 mM MOPS, pH 6.7, 10 mM MgCl2, 5 mM DTT and CHAPS 0.03%. Reactions were initiated by the addition of ATP, the final reaction mixture consisted of 20 μM PIP2, 2 μM ATP, 0.5 μCi [γ-^33P] ATP, 3.4 nM PI3Kδ. Reactions were incubated for 120 min and terminated by the addition of 40 μL SPA beads suspended in quench buffer: 163 mM potassium phosphate pH 7.8, 20% glycerol, 25 mM EDTA. The final concentration of SPA beads is 1.0 mg/mL. After the plate sealing, plates were shaken overnight at room temperature and centrifuged at 1500 rpm for 10 min, the radioactivity of the product was determined by scintillation counting on Topcount (Perkin-Elmer). IC50 determination was performed by fitting the curve of percent of the solvent control activity versus the log of the inhibitor concentration using the GraphPad Prism 6.0 software.

PI3Kγ (p110γ) Recombinant Human Protein, sequence (P48736 whole entry): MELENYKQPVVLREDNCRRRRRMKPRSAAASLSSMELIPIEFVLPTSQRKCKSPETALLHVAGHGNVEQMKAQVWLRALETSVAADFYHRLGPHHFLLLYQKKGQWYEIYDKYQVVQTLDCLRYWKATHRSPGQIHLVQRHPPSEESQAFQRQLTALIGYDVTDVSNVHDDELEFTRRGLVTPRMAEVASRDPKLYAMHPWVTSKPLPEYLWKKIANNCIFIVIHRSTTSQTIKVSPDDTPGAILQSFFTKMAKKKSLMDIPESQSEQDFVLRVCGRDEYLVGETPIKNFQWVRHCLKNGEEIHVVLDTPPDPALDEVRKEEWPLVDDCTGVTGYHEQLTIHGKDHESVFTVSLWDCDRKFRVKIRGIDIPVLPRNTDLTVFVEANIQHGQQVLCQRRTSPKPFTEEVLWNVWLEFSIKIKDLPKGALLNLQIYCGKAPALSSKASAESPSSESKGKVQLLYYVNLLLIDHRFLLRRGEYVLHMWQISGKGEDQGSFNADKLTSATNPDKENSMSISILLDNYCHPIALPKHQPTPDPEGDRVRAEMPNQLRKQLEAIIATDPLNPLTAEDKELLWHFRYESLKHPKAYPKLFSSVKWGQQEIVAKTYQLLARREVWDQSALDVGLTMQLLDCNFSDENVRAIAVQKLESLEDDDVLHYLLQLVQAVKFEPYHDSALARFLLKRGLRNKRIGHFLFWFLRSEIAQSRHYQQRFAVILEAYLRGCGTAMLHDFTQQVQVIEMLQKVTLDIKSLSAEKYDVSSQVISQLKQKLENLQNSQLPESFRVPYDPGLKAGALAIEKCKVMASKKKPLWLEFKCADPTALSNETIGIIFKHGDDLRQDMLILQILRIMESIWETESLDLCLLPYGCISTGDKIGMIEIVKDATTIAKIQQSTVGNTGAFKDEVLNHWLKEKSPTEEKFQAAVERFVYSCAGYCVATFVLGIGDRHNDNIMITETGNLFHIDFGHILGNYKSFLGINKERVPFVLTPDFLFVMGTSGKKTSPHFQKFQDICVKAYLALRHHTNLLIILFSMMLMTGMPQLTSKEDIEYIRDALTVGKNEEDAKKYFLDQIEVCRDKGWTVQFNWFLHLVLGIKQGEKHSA
PI3Kδ (p110δ/p85α) Recombinant Human Protein, sequence (O00329 whole entry): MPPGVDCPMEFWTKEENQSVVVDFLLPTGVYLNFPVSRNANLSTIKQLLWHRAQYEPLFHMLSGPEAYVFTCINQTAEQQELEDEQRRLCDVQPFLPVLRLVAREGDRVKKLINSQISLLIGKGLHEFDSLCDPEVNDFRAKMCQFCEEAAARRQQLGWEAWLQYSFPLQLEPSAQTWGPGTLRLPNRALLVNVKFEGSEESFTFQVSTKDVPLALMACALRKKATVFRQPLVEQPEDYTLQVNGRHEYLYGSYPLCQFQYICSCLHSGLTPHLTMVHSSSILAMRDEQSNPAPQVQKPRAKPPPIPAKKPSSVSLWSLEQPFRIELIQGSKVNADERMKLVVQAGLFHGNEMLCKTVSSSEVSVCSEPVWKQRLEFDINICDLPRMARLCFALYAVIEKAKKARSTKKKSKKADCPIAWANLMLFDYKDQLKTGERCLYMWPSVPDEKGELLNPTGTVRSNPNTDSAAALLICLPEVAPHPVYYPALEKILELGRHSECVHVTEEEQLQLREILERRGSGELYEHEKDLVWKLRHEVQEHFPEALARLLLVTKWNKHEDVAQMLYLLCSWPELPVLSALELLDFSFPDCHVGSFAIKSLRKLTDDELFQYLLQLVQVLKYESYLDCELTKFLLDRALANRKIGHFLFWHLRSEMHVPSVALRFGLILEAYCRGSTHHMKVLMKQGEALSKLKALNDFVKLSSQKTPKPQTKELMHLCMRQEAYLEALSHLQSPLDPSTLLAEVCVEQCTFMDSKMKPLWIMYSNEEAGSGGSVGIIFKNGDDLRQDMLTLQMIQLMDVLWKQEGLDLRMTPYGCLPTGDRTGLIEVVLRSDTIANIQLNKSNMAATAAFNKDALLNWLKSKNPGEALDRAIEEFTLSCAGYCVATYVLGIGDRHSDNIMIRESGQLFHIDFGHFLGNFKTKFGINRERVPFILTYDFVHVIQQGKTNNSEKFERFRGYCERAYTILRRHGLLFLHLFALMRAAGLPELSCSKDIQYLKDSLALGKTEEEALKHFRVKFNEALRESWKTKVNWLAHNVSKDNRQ
PI3Kδ (p110δ/p85α) Recombinant Human Protein, sequence (P27986 whole entry partner): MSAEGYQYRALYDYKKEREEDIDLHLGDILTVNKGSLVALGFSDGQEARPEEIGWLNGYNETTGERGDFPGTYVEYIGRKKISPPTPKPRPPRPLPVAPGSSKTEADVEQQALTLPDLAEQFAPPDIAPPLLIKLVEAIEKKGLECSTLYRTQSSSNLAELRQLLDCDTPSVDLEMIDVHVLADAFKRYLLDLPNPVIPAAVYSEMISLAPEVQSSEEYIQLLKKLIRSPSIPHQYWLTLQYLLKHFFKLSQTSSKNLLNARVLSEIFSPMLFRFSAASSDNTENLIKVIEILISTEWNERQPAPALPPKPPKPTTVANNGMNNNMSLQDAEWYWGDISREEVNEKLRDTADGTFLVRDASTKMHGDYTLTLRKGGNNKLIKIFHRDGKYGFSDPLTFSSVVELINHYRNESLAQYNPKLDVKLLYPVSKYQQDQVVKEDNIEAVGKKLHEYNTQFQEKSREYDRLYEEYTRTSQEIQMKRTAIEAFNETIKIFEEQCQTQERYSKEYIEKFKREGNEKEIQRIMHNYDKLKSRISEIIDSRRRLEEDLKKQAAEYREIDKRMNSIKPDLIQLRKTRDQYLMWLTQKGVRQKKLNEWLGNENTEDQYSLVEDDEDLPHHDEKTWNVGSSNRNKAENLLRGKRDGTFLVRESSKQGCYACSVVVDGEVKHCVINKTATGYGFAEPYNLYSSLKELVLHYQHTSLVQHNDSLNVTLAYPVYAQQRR

SMILES	IC50 [1]	IC50 [2]
Nc1ncnn2c(-c3ccc(F)c(S(=O)(=O)NC45CCC(CO)(C4)C5)c3)cnc12 [Example 366, 5-(4-Aminoimidazo[1,2-f][1,2,4]triazin-7-yl)-2-fluoro-N-(4-(hydroxymethyl)bicyclo[2.1.1]hexan-1-yl)benzenesulfonamide trifluoroacetate salt]	< 100 nM	100 to 500 nM
Cc1cc(-c2cnc3c(N)nccn23)cc(S(=O)(=O)N[C@H]2CC[C@H](O)CC2)c1 [Example 44, 3-(8-Aminoimidazo[1,2-a]pyrazin-3-yl)-N-(trans-4-hydroxycyclohexyl)-5-methylbenzenesulfonamide]	500 to 2000 nM	> 2000 nM
Cc1ccc(S(=O)(=O)N2CC3C(O)C2CN3C)cc1-c1cnc2c(N)nc(C(F)(F)F)nn12 (stereo not drawn) [Example 352, 2-((3-(4-amino-2-(trifluoromethyl)imidazo[2,1-f][1,2,4]triazin-7-yl)-4-methylphenyl)sulfonyl)-5-methyl-2,5-diazabicyclo[2.2.1]heptan-7-ol]	< 100 nM	500 to 2000 nM
COC[C@H]1CCCN1C(=O)C1CCCN(S(=O)(=O)c2ccc(C)c(-c3cnc4c(N)nc(C(F)(F)F)cn34)c2)C1 (stereo partly drawn) [Example 511, (1-((3-(8-Amino-6-(trifluoromethyl)imidazo[1,2-a]pyrazin-3-yl)-4-methylphenyl)sulfonyl)piperidin-3-yl)((R)-2-(methoxymethyl)pyrrolidin-1-yl)methanone]	500 to 2000 nM	> 2000 nM
Cc1ccc(S(C)(=O)=O)cc1-c1cnc2c(N)nc(C(=O)NCCc3cnn(C)c3)cn12 [Example 453, 8-amino-N-(2-(1-methyl-1H-pyrazol-4-yl)ethyl)-3-(2-methyl-5-(methylsulfonyl)phenyl)imidazo[1,2-a]pyrazine-6-carboxamide trifluoroacetate salt]	100 to 500 nM	100 to 500 nM
Cc1ccc(S(=O)(=O)NCC2(C)COC2)cc1-c1cnc2c(N)cccn12 [Example 3, 3-(8-Aminoimidazo[1,2-a]pyridin-3-yl)-4-methyl-N-[(3-methyloxetan-3-yl)methyl]benzenesulfonamide trifluoroacetate]	100 to 500 nM	> 2000 nM
Cc1ccc(S(=O)(=O)NC2(C)CCCN(C)C2)cc1-c1cnc2c(N)nc(C(F)(F)F)nn12 (stereo not drawn) [Example 526, 3-(4-Amino-2-(trifluoromethyl)imidazo[2,1-f][1,2,4]triazin-7-yl)-N-(1,3-dimethylpiperidin-3-yl)-4-methylbenzenesulfonamide trifluoroacetate]	< 100 nM	–
Cc1ccc(S(=O)(=O)NC23CC(CN(C(C)C)C2)C3)cc1-c1cnc2c(N)nc(C(F)(F)F)nn12 [Example 524, 3-(4-Amino-2-(trifluoromethyl)imidazo[2,1-f][1,2,4]triazin-7-yl)-N-(3-isopropyl-3-azabicyclo[3.1.1]heptan-1-yl)-4-methylbenzenesulfonamide trifluoroacetate]	< 100 nM	–
Cc1ccc(S(=O)(=O)NC2(C)CNC2)cc1-c1cnc2c(N)nc(C(F)(F)F)nn12 [Example 531, 3-(4-Amino-2-(trifluoromethyl)imidazo[2,1-f][1,2,4]triazin-7-yl)-4-methyl-N-(3-methylazetidin-3-yl)benzenesulfonamide trifluoroacetate]	< 100 nM	–
Cc1ccc(S(=O)(=O)NC2(C)CCN(C)C2)cc1-c1cnc2c(N)nc(C(F)(F)F)nn12 (stereo not drawn) [Example 533, 3-(4-Amino-2-(trifluoromethyl)imidazo[2,1-f][1,2,4]triazin-7-yl)-N-(1,3-dimethylpyrrolidin-3-yl)-4-methylbenzenesulfonamide trifluoroacetate]	< 100 nM	–

Second part, the molecule after the results:

IC50 [1]	IC50 [2]	SMILES
< 100 nM	500 to 2000 nM	Cc1ccc(S(=O)(=O)N2CCC(c3ccncc3)C2)cc1-c1cnc2c(N)ncnn12 (stereo not drawn) [Example 201, 7-(2-Methyl-5-((3-(pyridin-4-yl)pyrrolidin-1-yl)sulfonyl)phenyl)imidazo[2,1-f][1,2,4]triazin-4-amine]
< 100 nM	100 to 500 nM	Cc1ccc(S(=O)(=O)N2CCC3(CCC(F)(F)CC3)C2)cc1-c1cnc2c(N)ncnn12 [Example 207, 7-(5-((8,8-Difluoro-2-azaspiro[4.5]decan-2-yl)sulfonyl)-2-methylphenyl)imidazo[2,1-f][1,2,4]triazin-4-amine]
< 100 nM	500 to 2000 nM	N#Cc1ccc(S(=O)(=O)NC23CCC(C#N)(C2)C3)cc1-c1cnc2c(N)ncnn12 [Example 260, 3-(4-Aminoimidazo[2,1-f][1,2,4]triazin-7-yl)-4-cyano-N-(4-cyanobicyclo[2.1.1]hexan-1-yl)benzenesulfonamide trifluoroacetate salt]
< 100 nM	–	Cc1ccc(S(=O)(=O)N2CCn3cnc(C(=O)NCC(F)(F)F)c3C2)cc1-c1cnc2c(N)ncnn12 [Example 241, 7-((3-(4-aminoimidazo[2,1-f][1,2,4]triazin-7-yl)-4-methylphenyl)sulfonyl)-N-(2,2,2-trifluoroethyl)-5,6,7,8-tetrahydroimidazo[1,5-a]pyrazine-1-carboxamide]
< 100 nM	–	Cc1ccc(S(=O)(=O)NCc2ccnn2C)cc1-c1cnc2c(N)ncnn12 [Example 236, 3-(4-aminoimidazo[2,1-f][1,2,4]triazin-7-yl)-4-methyl-N-((1-methyl-1H-pyrazol-5-yl)methyl)benzenesulfonamide]
< 100 nM	–	Cc1ccc(S(=O)(=O)N2CCN(c3nccnc3C#N)CC2)cc1-c1cnc2c(N)ncnn12 [Example 231, 3-(4-((3-(4-aminoimidazo[2,1-f][1,2,4]triazin-7-yl)-4-methylphenyl)sulfonyl)piperazin-1-yl)pyrazine-2-carbonitrile]
< 100 nM	–	Cc1ccc(S(=O)(=O)Nc2ccnc(C#N)c2)cc1-c1cnc2c(N)ncnn12 [Example 248, 3-(4-aminoimidazo[2,1-f][1,2,4]triazin-7-yl)-N-(2-cyanopyridin-4-yl)-4-methylbenzenesulfonamide]
< 100 nM	–	Cc1ccncc1NS(=O)(=O)c1ccc(C)c(-c2cnc3c(N)ncnn23)c1 [Example 245, 3-(4-aminoimidazo[2,1-f][1,2,4]triazin-7-yl)-4-methyl-N-(4-methylpyridin-3-yl)benzenesulfonamide]
100 to 500 nM	–	Cc1ccc(S(=O)(=O)NC(c2ccccn2)C(F)(F)F)cc1-c1cnc2c(N)ncnn12 (stereo not drawn) [Example 234, 3-(4-aminoimidazo[2,1-f][1,2,4]triazin-7-yl)-4-methyl-N-(2,2,2-trifluoro-1-(pyridin-2-yl)ethyl)benzenesulfonamide]
< 100 nM	–	Cc1ccc(S(=O)(=O)N2CCC(c3ccccn3)CC2)cc1-c1cnc2c(N)ncnn12 [Example 216, 7-(2-methyl-5-((4-(pyridin-2-yl)piperidin-1-yl)sulfonyl)phenyl)imidazo[2,1-f][1,2,4]triazin-4-amine]
< 100 nM	–	Cc1ccc(S(=O)(=O)N(C)c2ccncc2)cc1-c1cnc2c(N)ncnn12 [Example 247, 3-(4-aminoimidazo[2,1-f][1,2,4]triazin-7-yl)-N,4-dimethyl-N-(pyridin-4-yl)benzenesulfonamide]
100 to 500 nM	–	Cc1ccc(S(=O)(=O)NC(CN)C2CC2)cc1-c1cnc2c(N)ncnn12 (stereo not drawn) [Example 238, N-(2-amino-1-cyclopropylethyl)-3-(4-aminoimidazo[2,1-f][1,2,4]triazin-7-yl)-4-methylbenzenesulfonamide]
< 100 nM	–	CNC(=O)C1CCN(S(=O)(=O)c2ccc(C)c(-c3cnc4c(N)ncnn34)c2)CC1 [Example 227, 1-((3-(4-aminoimidazo[2,1-f][1,2,4]triazin-7-yl)-4-methylphenyl)sulfonyl)-N-methylpiperidine-4-carboxamide]
< 100 nM	–	Cc1ccc(S(=O)(=O)N2CCn3ccnc3C2)cc1-c1cnc2c(N)ncnn12 [Example 223, 7-(5-((5,6-dihydroimidazo[1,2-a]pyrazin-7(8H)-yl)sulfonyl)-2-methylphenyl)imidazo[2,1-f][1,2,4]triazin-4-amine]
